Assay results taken from publication PMC10088926, “Synthesis, DFT calculations, and anti-proliferative evaluation of pyrimidine and selenadiazolopyrimidine derivatives as dual Topoisomerase II and HSP90 inhibitors” (Journal of Enzyme Inhibition and Medicinal Chemistry, 2023).
“Also recorded” adds a separate entry of the source. Read-outs that look alike come from different tables or passages of the source.

How the values were obtained:
[1] = test system: HepG-2 cells (human Hepatocellular carcinoma); experiment: In vitro cytotoxicity, viability assay (MTT method), HepG-2; format: cell-based; settings: HepG2, 24 h incubation, triplicate, read-out: IC50 values (mean ± SD) HepG-2
Protocol: (§1) All experiments were conducted in triplicate.
(§2) Scaffold I compounds were characterised by the uracil core attached to the 5,5-dimethyl cyclohexanone moiety through an NH linker and bearing an amino group at position 6. The activity of such compounds could be attributed to the larger number of hydrogen bond donors when compared to compounds with scaffold II. On the other hand, the activity of 5d with scaffold II could be attributed to the nature of the substituent at N1 of the pyrimidine ring being a hydrophobic benzyl group that could be involved in hydrophobic interaction and π-π stacking. Generally, the isosteric substitution of oxo with thioxo at position 2 of the pyrimidine ring lowered the anti-proliferative activity in both scaffolds I and II compounds.

[2] = test system: A-549 cells (lung carcinoma); experiment: In vitro cytotoxicity, viability assay (MTT method), A-549; format: cell-based; settings: Homo sapiens, A549, 24 h incubation, triplicate, read-out: IC50 values (mean ± SD) A-549
Protocol: as §1, §2

[3] = test system: MCF-7 cells (human breast cancer cell line); experiment: In vitro cytotoxicity, viability assay (MTT method), MCF-7; format: cell-based; settings: MCF7, 24 h incubation, triplicate, read-out: IC50 values (mean ± SD) MCF-7
Protocol: as §1, §2

[4] = test system: MCF-7, HepG-2 and A-549 cells; experiment: Anti-proliferative screening, classification over the three cell lines; format: cell-based; settings: compared to methotrexate
Protocol: as §1, §2

Topoisomerase II = molecular target: T1, Topoisomerase II (Homo sapiens, UniProt P11388); experiment: In vitro Topoisomerase II enzyme inhibition assay (plasmid-based kit); format: biochemical
T1 construct: purchased
Protocol: (§3) In vitro enzyme inhibitory assay of compounds 3a and 5d was performed against Topoisomerase-II enzyme using Topoisomerase II Assay Kit (plasmid-based)[34] and HSP90 enzyme using HSP90 (C-Terminal) Inhibitor Screening Assay Kit[35]. The procedure of the used kits was done according to the manufacturer’s instructions.
Topoisomerase II inhibitors can cause DNA damage and halt the cell cycle.

HSP90 = experiment: In vitro HSP90 enzyme inhibition assay (HSP90 (C-Terminal) Inhibitor Screening Assay Kit); format: biochemical; settings: read-out: HSP90 IC50 (mean ± SD)
Protocol: as §3
As reported, cancer cell growth and proliferation are inhibited when HSP90 is inhibited.

HepG-2 cells [5] = experiment: Flow cytometric analysis of cell-cycle distribution (propidium iodide); format: cell-based, human
Protocol: Cell-cycle analysis was performed by DNA staining with propidium iodide (PI) following the manufacturer’s protocol (Abcam, USA)[36]. HepG-2 cells were cultured following the procedure till exponential growth was reached. After removing the culture media, the cells were rinsed with phosphate buffer. Cells were then treated with 3a and suspended in 66% ethanol on the ice at 4 °C. Then, PI was added together with the RNase staining solution. Incubation was allowed for 20–30 min at 37 °C in the dark. For the preparation of flow cytometry, fixed cells were placed on ice. Podium iodide fluorescence was collected using 488 nm laser illumination.
Thus, it was studied further to determine the mechanism of its cell growth inhibition. The standard PI flow cytometry assay was used to investigate cell cycle distribution and apoptosis induction in HepG-2 cells. […] 3a halts the cell cycle of HepG-2 at the G1-S phase.

HepG-2 cells [6] = experiment: Cellular apoptosis analysis (Annexin V-FITC/PI); format: cell-based, human; settings: HepG-2, 14.31 μM, 24 h; untreated cells 0.58%
Protocol: Annexin V is a protein that has a high affinity to bind to membrane phosphatidylserine (PS) translocated from the inner cellular plasma membrane to the cell surface after apoptosis initiation following the manufacturer protocol (Biovision, USA)[37]. HepG-2 cells in exponential growth were treated with compound 3a and incubated for 24 h. Then, 1–5 × 10^5 were collected via centrifugation and suspended in 500 µL of 1X Binding Buffer, 5 µL of Annexin V-FITC, and 5 µL of propidium iodide were added and allowed to incubate in the dark for 5 min, then Annexin V-FITC binding was quantified by flow cytometry using emission signal detector at 530 nm.
Using HepG-2 cells and the Annexin FITC/PI dual-labelling technique, 3a-induced apoptosis was investigated.

caspase-3 gene = caspase-3 gene expression (RT-PCR) in HepG-2; format: cell-based, human; settings: HepG-2, compared to control cells
Protocol: (§4) The level of Topoisomerase II, HSP90, and caspase-3 gene expression were assessed using Bio-Rad RT-PCR Kit following the manufacturer’s instructions. HepG-2 cells were exponentially grown and then treated with 3a after treatment with DNA polymerase and fluorescein. The expression of Topoisomerase II, HSP90, and caspase-3 genes was measured fluorometrically.
(§5) A caspase family is a group of cysteine proteases that activates apoptosis through receptor or mitochondrial-dependent cell death. Caspase-3 activation catalyses the cleavage of key cellular proteins, leading to both mitochondrial-dependent and non-dependent cell death. Caspase-3 is also associated with cell rupture and the formation of apoptotic bodies. The effect of 3a on caspase-3 gene expression was studied in HepG-2 cell lines. […] The gene that encodes DNA Topoisomerase II controls the topology of […] during DNA transcription. This gene is a target for anti-proliferative agents by altering enzyme activity. In the present work, the effect of 3a on the expression of the gene encoding Topoisomerase II in the supernatant of HepG-2 cell lines was studied. […] Furthermore, the HSP90 encoding gene interferes with the proper folding of specified protein targets and interferes with ATP binding.

[7] = test system: gene encoding Topoisomerase II; experiment: Topoisomerase II gene expression (RT-PCR) in HepG-2; format: cell-based, human; settings: supernatant of HepG-2 cell lines, compared to control cells
Protocol: as §4, §5

gene encoding HSP90 = experiment: HSP90 gene expression (RT-PCR) in HepG-2; format: cell-based, human; settings: supernatant of HepG-2 cell lines, compared to control cells
Protocol: as §4, §5

[8] = In vitro cytotoxicity against normal WI-38 cell line; settings: human
Excerpt: The viability assay (MTT method)[33] was used to evaluate the cytotoxic activity of the synthesised compounds against three mammalian tumour cell lines obtained from the VACSERA Tissue Culture Unit, namely MCF-7 cells (human breast cancer cell line), HepG-2 cells (human Hepatocellular carcinoma), and A-549 cells (lung carcinoma), as well as the normal WI-38 human cell line for both compounds 3a and 5d. […] 1% Crystal violet stain: it is composed of 0.5% (w/v) crystal violet and 50% methanol, which is then diluted to volume with ddH2O and filtered through a Whatman No.1 filter paper. Dulbecco’s modified Eagle’s medium (DMEM) supplemented with 10% heat-inactivated foetal bovine serum, 1% L-glutamine, HEPES buffer, and 50 μg/mL gentamycin was used to grow the cells. All cells were cultured twice a week and kept at 37 °C in a humidified atmosphere with 5% CO2. In 100 μL of the growth medium, the cells were seeded in a 96-well plate at a cell concentration of 1 × 10^4 cells per well. After 24 h of seeding, a fresh medium containing different concentrations of the test sample was added. A multichannel pipette was used to add serial two-fold dilutions of the tested chemical compound to confluent cell monolayers dispensed into 96-well, flat-bottomed microtiter plates (Falcon, NJ, USA). The microtiter plates were incubated for 24 h at 37 °C in a humidified incubator with 5% CO2. For each concentration of the test sample, three wells were used. […] Glacial acetic acid (30%) was thoroughly mixed into all wells, and the absorbance of the plates was measured. Background absorbance detected in wells without added stain was corrected for in all results. […] Each tested compound’s cytotoxic effect on cells was calculated. To determine the number of viable cells, the optical density was measured using a microplate reader (Sunrise, TECAN, Inc, USA), and the percentage of viability was calculated as [(ODt/ODc)] × 100%, where ODt is the mean optical density of wells treated with the tested sample and ODc is the mean optical density of untreated cells. […]

T1 sequence (P11388 whole entry): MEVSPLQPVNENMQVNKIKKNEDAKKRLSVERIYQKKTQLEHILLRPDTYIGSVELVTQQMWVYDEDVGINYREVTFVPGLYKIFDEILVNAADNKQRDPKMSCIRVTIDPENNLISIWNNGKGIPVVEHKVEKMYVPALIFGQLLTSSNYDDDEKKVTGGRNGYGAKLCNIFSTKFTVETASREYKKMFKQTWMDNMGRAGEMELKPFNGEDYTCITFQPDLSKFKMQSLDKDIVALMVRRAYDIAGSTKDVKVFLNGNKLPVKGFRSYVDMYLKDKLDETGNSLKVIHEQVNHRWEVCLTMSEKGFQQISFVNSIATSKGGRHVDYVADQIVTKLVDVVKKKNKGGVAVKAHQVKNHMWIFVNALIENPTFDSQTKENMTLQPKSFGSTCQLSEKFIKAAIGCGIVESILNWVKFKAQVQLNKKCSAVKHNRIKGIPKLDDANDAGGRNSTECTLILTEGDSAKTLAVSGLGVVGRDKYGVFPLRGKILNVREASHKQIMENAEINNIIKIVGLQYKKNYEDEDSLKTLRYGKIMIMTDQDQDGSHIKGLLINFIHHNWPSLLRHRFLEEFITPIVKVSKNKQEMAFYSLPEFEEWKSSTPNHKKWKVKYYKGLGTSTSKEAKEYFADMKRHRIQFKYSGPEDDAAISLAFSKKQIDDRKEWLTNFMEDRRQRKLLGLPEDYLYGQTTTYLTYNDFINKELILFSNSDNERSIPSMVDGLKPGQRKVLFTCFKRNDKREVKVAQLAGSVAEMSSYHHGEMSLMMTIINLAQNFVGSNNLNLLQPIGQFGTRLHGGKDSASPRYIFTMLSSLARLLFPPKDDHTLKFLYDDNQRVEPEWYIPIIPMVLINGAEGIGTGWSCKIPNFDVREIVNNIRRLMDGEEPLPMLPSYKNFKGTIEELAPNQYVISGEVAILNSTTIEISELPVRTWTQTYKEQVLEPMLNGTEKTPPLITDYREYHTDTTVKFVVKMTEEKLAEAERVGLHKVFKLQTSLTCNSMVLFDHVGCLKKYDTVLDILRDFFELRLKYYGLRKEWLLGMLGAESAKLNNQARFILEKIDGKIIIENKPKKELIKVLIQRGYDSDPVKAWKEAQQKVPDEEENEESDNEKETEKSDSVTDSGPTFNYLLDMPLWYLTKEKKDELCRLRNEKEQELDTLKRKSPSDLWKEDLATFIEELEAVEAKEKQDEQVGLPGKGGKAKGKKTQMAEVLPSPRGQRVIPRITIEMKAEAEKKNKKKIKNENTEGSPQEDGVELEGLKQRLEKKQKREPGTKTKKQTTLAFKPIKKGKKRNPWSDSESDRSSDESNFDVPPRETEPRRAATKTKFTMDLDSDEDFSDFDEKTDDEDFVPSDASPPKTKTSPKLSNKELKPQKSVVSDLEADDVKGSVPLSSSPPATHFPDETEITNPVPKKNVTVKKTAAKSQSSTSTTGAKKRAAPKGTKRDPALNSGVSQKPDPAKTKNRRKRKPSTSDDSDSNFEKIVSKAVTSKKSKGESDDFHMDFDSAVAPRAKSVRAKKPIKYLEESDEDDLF

SMILES | melting point [°C] | IC50 [1] [µM] | IC50 [2] [µM] | IC50 [3] [µM] | anti-proliferative activity category [4] | other results
Nc1c(N=[Se]=O)c(=O)[nH]c(=O)n1Cc1ccccc1Cl | > 300 |  |  |  |  | 
O=c1[nH]cc(F)c(=O)[nH]1 [5-Fluorouracil, reference compound] |  | 7.37 ± 0.29 | 12.3 ± 0.53 | 10.1 ± 0.44 |  | 
CC1(C)CC(=O)C=C(Nc2c(N)[nH]c(=O)[nH]c2=O)C1 [Compound 3a, 6-Amino-5-((5,5-dimethyl-3-oxocyclohex-1-en-1-yl)amino)pyrimidine-2,4(1H,3H)-dione] |  | 14.3 ± 0.83 | 30.7 ± 0.76 | 27.1 ± 1.91 | moderate to high | IC50 (Topoisomerase II; in vitro enzyme assay, read-out: Topoisomerase II IC50 (mean ± SD)): 4.48 ± 0.65 µM; IC50 (HSP90): 1.78 ± 0.11 µM; phase at which the cell cycle is halted (HepG-2 cells [5]; HepG-2): G1-S phase; %DIP G1 (cells in the G1-S phase) (HepG-2 cells [5]; HepG-2, 14.31 μM, untreated cells 43.82% (±2.61)): 51.46%; total apoptotic cells (HepG-2 cells [6]): 37.93%; caspase-3 gene expression (caspase-3 gene): upregulating; also recorded: increased; also recorded: upregulated; Topoisomerase II gene expression [7]: downregulating; also recorded: downregulate; HSP90 gene expression (gene encoding HSP90): downregulating; also recorded: downregulated; IC50 at 24 h [8]: 80.8 ± 3.04 µM
CC1(C)CC(=O)C=C(Nc2c(N)n(Cc3ccccc3Cl)c(=O)[nH]c2=O)C1 [Compound 3b, 6-Amino-1-(2-chlorobenzyl)-5-((5,5-dimethyl-3-oxocyclohex-1-en-1-yl)amino)pyrimidine-2,4(1H,3H)-dione] | 294 to 296 | 40.4 ± 1.25 | 36.4 ± 1.09 | 46.1 ± 1.63 | low to moderate | 
Cn1c(N)c(NC2=CC(=O)CC(C)(C)C2)c(=O)[nH]c1=S [Compound 3c, 6-Amino-5-((5,5-dimethyl-3-oxocyclohex-1-en-1-yl)amino)-1-methyl-2-thioxo-2,3-dihydropyrimidin-4(1H)-one] | > 300 | > 100 | > 100 | > 100 | low | 
CCn1c(N)c(NC2=CC(=O)CC(C)(C)C2)c(=O)[nH]c1=O [Compound 3d, 6-Amino-5-((5,5-dimethyl-3-oxocyclohex-1-en-1-yl)amino)-1-ethylpyrimidine-2,4(1H,3H)-dione] | > 300 | 21.6 ± 0.76 | 33.3 ± 0.99 | 31.4 ± 1.39 | moderate to high | 
CC1(C)CC(=O)C=C(Nc2c(N)n(Cc3ccccc3)c(=O)[nH]c2=O)C1 [Compound 3e, 6-Amino-1-benzyl-5-((5,5-dimethyl-3-oxocyclohex-1-en-1-yl)amino)pyrimidine-2,4(1H,3H)-dione] | 292 to 294 | 47.6 ± 1.39 | 44 ± 1.28 | > 100 | low to moderate | 
Cn1c(N)c(NC2=CC(=O)CC(C)(C)C2)c(=O)[nH]c1=O [Compound 3f, 6-Amino-5-((5,5-dimethyl-3-oxocyclohex-1-en-1-yl)amino)-1-methylpyrimidine-2,4(1H,3H)-dione] | > 300 | > 100 | > 100 | > 100 | low | 
O=c1[nH]c(=O)c2n[se]nc2[nH]1 [Compound 5a, [1,2, 5]selenadiazolo[3,4-d]pyrimidine-5,7(4H,6H)-dione] | > 300 | 51.7 ± 2.09 | 58 ± 2.13 | 51.9 ± 1.48 | low to moderate | 
Cn1c(=S)[nH]c(=O)c2n[se]nc21 [Compound 5b, 4-Methyl-5-thioxo-5,6-dihydro-[1,2,5]selenadiazolo[3,4-d]pyrimidin-7(4H)-one] | > 300 | 57.9 ± 2.43 | 68.7 ± 3.86 | 98.1 ± 3.45 | low to moderate | 
CCn1c(=O)[nH]c(=O)c2n[se]nc21 [Compound 5c, 4-Ethyl-[1,2, 5]selenadiazolo[3,4-d]pyrimidine-5,7(4H,6H)-dione] | > 300 | 33.4 ± 1.09 | 42.5 ± 1.19 | 39.7 ± 1.32 |  | 
O=c1[nH]c(=O)n(Cc2ccccc2)c2n[se]nc12 [Compound 5d, 4-Benzyl-[1,2, 5]selenadiazolo[3,4-d]pyrimidine-5,7(4H,6H)-dione] | 260 to 261 | 17.7 ± 0.81 | 26.8 ± 0.89 | 29.3 ± 0.86 | moderate to high | IC50 (Topoisomerase II): 8.39 ± 1.07 µM; IC50 (HSP90): 7.69 ± 0.46 µM; IC50 at 24 h [8]: 54.6 ± 2.05 µM
Cn1c(=O)[nH]c(=O)c2n[se]nc21 [Compound 5e, 4-Methyl-[1,2, 5]selenadiazolo[3,4-d]pyrimidine-5,7(4H,6H)-dione] | > 300 | > 100 | > 100 | > 100 | low | 
Cn1c(=O)c2n[se]nc2n(C)c1=O [Compound 7, 4,6-Dimethyl-[1,2, 5]selenadiazolo[3,4-d]pyrimidine-5,7(4H,6H)-dione] | 278 to 280 | > 100 | > 100 | > 100 | low | 
COc1cccc2c1C(=O)c1c(O)c3c(c(O)c1C2=O)C[C@@](O)(C(=O)CO)C[C@@H]3O[C@H]1C[C@H](N)[C@H](O)[C@H](C)O1 [Doxorubicin, reference compound] |  |  |  |  |  | IC50 at 24 h [8]: 19.6 ± 0.74 µM
CN(Cc1cnc2nc(N)nc(N)c2n1)c1ccc(C(=O)N[C@@H](CCC(=O)O)C(=O)O)cc1 [Methotrexate, reference compound] |  | 21.9 ± 1.08 | 34.5 ± 2.19 | 29.5 ± 2.19 |  | 
